The record followed here is US20080255153A1, “New compounds” (BIOVITRUM AB (publ), priority 2007, published 2008).

In this assay the target is T1, stearoyl-CoA desaturase (SCD) (Rattus norvegicus, UniProt P07308).
T1 construct: 0.032 mg/ml rat liver microsomes (total protein content); from tissue
T1 sequence (P07308 1-358): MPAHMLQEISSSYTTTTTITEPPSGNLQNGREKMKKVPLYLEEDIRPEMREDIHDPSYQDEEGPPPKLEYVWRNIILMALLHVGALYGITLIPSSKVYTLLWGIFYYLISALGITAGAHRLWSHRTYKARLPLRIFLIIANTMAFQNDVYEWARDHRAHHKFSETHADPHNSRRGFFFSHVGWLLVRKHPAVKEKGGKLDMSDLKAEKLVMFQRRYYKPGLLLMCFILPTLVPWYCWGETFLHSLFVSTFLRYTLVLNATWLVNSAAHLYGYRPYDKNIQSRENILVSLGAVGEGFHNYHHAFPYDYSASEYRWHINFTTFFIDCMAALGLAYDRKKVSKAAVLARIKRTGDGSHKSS
Kind of assay: Tritium release screening assay for inhibition of stearoyl-CoA desaturase activity in rat liver microsomes (96- or 384-well). The assay is classed as biochemical. The note with it: [3H]-stearoyl-CoA, 20 min pre-incubation, 20 min reaction. An excerpt:
The tritium release assay for the measurement of SCD activity is thus well documented in the literature. Descriptions on how these finding have been used to produce standard screening assays in 96-well plates are also available [Brownlie, Hayden, Attie, Ntambi, Gray-Keller, & Miyazaki (2001) WO 01/62954; Wu, Gallipoli, Gallagher, & Gardell (2004) WO 2004/04776]. We have adopted the tritium release assay to a 384-well format to improve throughput even further.
Microsomal preparations were prepared from the livers of Male Sprague-Dawley rats that had been fasted and then refed a low fat/high carbohydrate diet. The preparation of microsomes was adopted from Seifried and Gaylor [Seifried & Gaylor (1976) J. Biol. Chem. 251, 7468-7473]. Confirmation of compound activity on human material was made based on microsomal preparations from HepG2 cells. All other reagents were purchased from commercial sources. The assay was run in 96 or 384-well microtiter plates by consecutive additions of a test compound solution, a microsomal preparation solution and a substrate containing solution. The final concentrations of all reagents in a total assay volume of 40 μl per well (in the 384-well plate format) were: • 0.11 μM [^3H]-stearoyl-CoA • 50 nM stearoyl-CoA • 0.032 mg/ml rat liver microsomes (total protein content) • 2 mM NADH • 220 mM sucrose • 44 mM NaH2PO4 pH adjusted to 6.8 • 130 mM KCl • 1.3 mM GSH • 0.05 mM CoA • 0.1% BSA • 0.29 mM nicotine amide • 15 mM NaF • 1.1 mM ATP • 4.9 mM MgCl2 • 0.002% Tween-20 • A test compound at various concentrations (which also adds 0.5-2% DMSO to the final solution)
The test compounds were pre-incubated for 20 minutes with the microsomal preparation prior to starting the reaction by the addition of substrate. The enzymatic reaction was allowed to proceed for 20 minutes and then optionally slowed by an addition of 40 μl of a 2% DMSO solution in water containing a known inhibitor of SCD activity. The solutions were mixed and then 70 μl of the total 80 μl were transferred to a filter plate containing predispensed activated charcoal. The plate was then centrifuged and the filtrate collected in a collector plate to which 40 μl of Optiphase Supermix was added per well. Following an 18 h equilibration time at room temperature the plate was read in a Trilux MicroBeta (two minutes counting time per well). […] The inhibitory potency or IC50 values of test compounds on SCD activity were defined by applying the same assay in the presence of sub-nM to sub-mM compound concentrations.
Background: Microsomes from liver hold many membrane-bound enzymes, among them those of drug oxidation.

Molecules are shown by their SMILES.

As to `O=CNCCNC(=O)c1cnn2cc(Cc3ccc(Br)cc3)cnc12` [Example 25, 6-(4-Bromobenzyl)-N-[2-(formylamino)ethyl]pyrazolo[1,5-α]pyrimidine-3-carboxamide], the IC50 (in general, the concentration that inhibits the measured activity by half) amounted to 27 nM.

Turning to `Cc1nc2c(C(=O)NCCOCCO)cnn2cc1Cc1ccc(F)c(OC(F)(F)F)c1` [Example 38, 6-[4-Fluoro-3-(trifluoromethoxy)benzyl]-N-[2-(2-hydroxyethoxy)ethyl]-5-methyl-pyrazolo[1,5-α]pyrimidine-3-carboxamide], the IC50 came to 140 nM. Against the preceding compound, the IC50 is about 5.2-fold higher. For `Cc1c(Cc2ccccc2)cnc2c(C(=O)NCCOCCO)cnn12` [Example 39, 6-Benzyl-N-[2-(2-hydroxyethoxy)ethyl]-7-methylpyrazolo[1,5-α]pyrimidine-3-carboxamide] the value was 610 nM; for `NC(=O)COC(=O)c1cnn2cc(Cc3ccc(F)c(C(F)(F)F)c3)cnc12` [Example 48, 2-Amino-2-oxoethyl 6-[4-fluoro-3-(trifluoromethyl)benzyl]pyrazolo[1,5-α]pyrimidine-3-carboxylate], 91 nM; for `NC(=O)CNC(=O)c1cnn2cc(Sc3cccc(C(F)(F)F)c3)cnc12` [Example 50, N-(2-Amino-2-oxoethyl)-6-{[3-(trifluoromethyl)phenyl]thio}pyrazolo[1,5-α]-pyrimidine-3-carboxamide], 480 nM. Turning to `NC(=O)CNC(=O)c1cnn2cc(Cc3cccc(Cl)c3Cl)cnc12` [Example 56, N-(2-Amino-2-oxoethyl)-6-(2,3-dichlorobenzyl)pyrazolo[1,5-α]pyrimidine-3-carboxamide], inhibition was half-maximal at 22 nM (IC50). This IC50 lies about 22-fold lower than the previous one.
